Assay results published in patent US20170016875A1, “ANISOTROPIC MUSCULAR TISSUE DEVICES WITH INTEGRATED ELECTRICAL FORCE READOUTS” (President and Fellows of Harvard College, priority 2014, published 2017).

Test system: neonatal rat ventricular myocytes (NRVM)
Test: spontaneous beating of NRVM muscle tissue layer on cantilever device, resistance readout
Assay type: cell-based
Details: after addition of 10 μM isoproterenol; NRVM muscle tissue layer in incubator, resistance versus time (FIG. 12B)
Method: After placement of the wells, neonatal rat ventricular myocytes (NRVM) were seeded at a concentration of 0.3 Mio cells per ml medium, and the contraction of the resulting muscle tissue layers was tested on day 4-5 after seeding. Prior to testing, the cantilevers were released by lowering the sample temperature to room temperature to dissolve the […] sacrificial layer, meaning that the flexible substrate cantilevers were released from the underlying rigid glass substrate after development and growth of the tissue.

SMILES: CC(C)NCC(O)c1ccc(O)c(O)c1 (stereo not shown) [isoproterenol]
- spontaneous beating frequency of the cells: significantly increased
